The source of these data is patent US6303612A, “Derivatives of hydroxyphenylsulfanylbenzoic and hydroxphenylsulfanylarylacetic acids” (Leciva, A.S., priority 1998, dated 2001).

Values after ≈ are worked out from the molar mass of the structure shown. Where two headings read alike, the source gives them in different places.

One assay deals with LTB4 receptor (Cavia porcellus, UniProt H0VYV8). As to the kind of experiment: LTB4 receptor binding study. The following applies: 3H-LTB4, guinea-pig spleen membranes; for IC50: read-out: Inh. of LTB4 rec. binding, IC50; for inhibition at 20 µM: read-out: Inh. of LTB4 rec. binding, %. In a few lines: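 Male guinea-pig spleen membranes (2 mg) incubated with 0.3 nM ^3H-LTB4 for 30 min at 25 °C; nonspecific binding defined with 0.1 μM LTB4. Bound ligand collected by GF/C filtration, counted by liquid scintillation to give specific binding.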
Sequence of LTB4 receptor (H0VYV8 1-348): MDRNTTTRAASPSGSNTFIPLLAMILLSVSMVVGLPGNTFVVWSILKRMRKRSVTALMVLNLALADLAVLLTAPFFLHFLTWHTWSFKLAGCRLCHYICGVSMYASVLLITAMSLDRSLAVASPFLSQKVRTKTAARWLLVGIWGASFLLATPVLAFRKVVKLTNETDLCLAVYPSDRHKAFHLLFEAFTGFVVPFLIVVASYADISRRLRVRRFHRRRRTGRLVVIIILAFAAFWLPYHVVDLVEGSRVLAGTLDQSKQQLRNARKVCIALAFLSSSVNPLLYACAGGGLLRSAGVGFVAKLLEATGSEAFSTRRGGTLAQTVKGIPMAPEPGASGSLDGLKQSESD

For a further assay, the target named is T1, LTD4 receptor (Cavia porcellus, UniProt Q2NNR5).
T1 construct: The membrane fraction was prepared from male guinea-pig lungs; from tissue; host or cells: male guinea-pig lung membranes
T1 sequence (Q2NNR5 1-340): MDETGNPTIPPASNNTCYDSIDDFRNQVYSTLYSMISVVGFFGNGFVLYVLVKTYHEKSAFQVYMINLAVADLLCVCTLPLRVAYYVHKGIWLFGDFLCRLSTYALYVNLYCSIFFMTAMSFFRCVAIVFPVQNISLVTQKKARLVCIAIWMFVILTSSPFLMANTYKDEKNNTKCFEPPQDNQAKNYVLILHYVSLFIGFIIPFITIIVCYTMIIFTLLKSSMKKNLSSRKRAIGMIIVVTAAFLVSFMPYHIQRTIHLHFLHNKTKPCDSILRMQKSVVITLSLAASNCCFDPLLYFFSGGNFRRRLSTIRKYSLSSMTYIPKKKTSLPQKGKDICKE
The experiment in a line: LTD4 receptor binding study. Conditions: 3H-LTD4, guinea-pig lung membranes; for IC50: read-out: Inh. of LTD4 rec. binding, IC50; for inhibition at 100 µM: read-out: Inh. of LTD4 rec. binding, %. In a few lines:
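Guinea-pig lung membranes (male animals) were incubated with 0.4 nM ³H-LTD4 for 60 min at 25 °C. Nonspecific binding was defined with 0.1 μM LTD4. Bound radioactivity was measured after filtration and washing.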

A further assay relates to rats. As to the kind of experiment: Inhibition of carrageenan-induced pleuritis in rats. The assay is classed as in vivo. Conditions: dose 100 mg/kg, oral, values with mark n: p > 0.05; for inhibition in vivo at 100 mg/kg: Rattus norvegicus, po, 4 h. In a few lines:
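Rats given test drug as single oral dose 1 h before intrapleural 0.5% carrageenan (1 ml) under light ether anaesthesia. Pleural exudate collected 4 h later; volume, cellularity and total cell count measured.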

The subject of assay [1] is bronchospasm induced by ovalbumin. As to the kind of experiment: Inhibition of bronchospasm induced by ovalbumin. It is filed as in vivo. The method, then:
(§1) Inhibition of Allergic Bronchospasm Induced by […] (Compound 48/80 or Ovalbumin, Respectively)
(§2) The modified method of Kreutner W. et al (Krelutner W. et al.: Agents Actions 28, 253 (1989)) was used. Bronchoconstrictioin was induced by intravenous injection of 1 μg/kg LTD4 (3 mg/kg of compound […] or 0.35 mg/kg of ovalbumin, respectively). In the case of oval-bumin, the animals were senzitized by intraperitoneal injection of ovalbumin (100 mg/kg) 14 days before induction. The compounds tested were applied 5 min before the administration of the inductor; the vehiculum used for the application of compound tested was administered to the control group of animals. The tracheal pressure was determined in the intervals of 2, 4 and 10 minutes after induction. The effect was expressed in percentage inhibition of bronchospasm relative to the untreated control.

In assay [2] the test system is bronchospasm induced by LTD4. The experiment in a line: Inhibition of bronchospasm induced by LTD4. The assay is classed as in vivo. Here is the method: as §1, §2
A further assay deals with Wistar-Han rats. As to the kind of experiment: Inhibition of carrageenan edema. Conditions: dose 100 mg/kg; for inhibition in vivo at 100 mg/kg: Rattus norvegicus, read-out: CE: inhibition of carrageenan-induced edema, % of inh. It is filed as in vivo. In general terms: The carrageenan paw model is a standard test of acute inflammation.
The subject of assay [3] is peroxidation of lipids from the hepatic cells membranes. The experiment in a line: Antioxidant effect in vitro. Conditions: at 100 μg. It is filed as biochemical. The text has this: Antioxidant Effect in vitro
The end-product, malonic dialdehyde, was transformed to coloured complex with thiobarbituric acid and determined spectrophotometrically. The antioxidant effect was expressed in % of peroxidation inhibition in the presence of the compound tested in comparison to a control sample.

In assay [4] the test system is LTB4 production in rat polymorphonuclear cells. As to the kind of experiment: Ex vivo inhibition of LTB4 production (LTB4 biosynthesis). The assay is classed as cell-based. The following applies: for IC50: Rattus norvegicus, read-out: Inh. of LTB4 biosynth., IC50; for Inh. of LTB4 biosynth., %: at 30 μg (%/μg).
The test system of another assay is male mice. As to the kind of experiment: Inhibition of arachidonic acid-induced ear inflammation in mice. The assay is classed as in vivo. Conditions: for inhibition in vivo at 200 mg/kg: Mus musculus, po, 1 h. The method in brief:
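Compounds given orally 1 h before ear inflammation was induced in male mice with 20 µl arachidonic acid in acetone (100 mg/ml). Animals killed 1 h after induction. Ear hyperemia and ear-lobe weight assessed against the vehicle-treated contralateral ear.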

For assay [5], the system named is bronchospasm induced by histamine liberator 48/80. The experiment in a line: Inhibition of bronchospasm induced by histamine liberator 48/80. Conditions: dose 100 mg/kg. The assay is classed as in vivo. The method, then:
as §1, §2

[6] abbreviates: read-out: Experimental pleuritis, A: volume of exudate in pleural cavity, % of inh.
The mark [7] stands for this setting: read-out: Experimental pleuritis, B: number of cells, % of inh.
Where [8] appears, read: read-out: Experimental pleuritis, C: cellularity in a volume unit, % of inh.
[9] abbreviates: values with mark n: p > 0.05, read-out: Ear edema, D: edema of ear lobe, % of inh.
Where [10] appears, read: values with mark n: p > 0.05, read-out: Ear edema, E: hyperemia of ear lobe, % of inh.
The mark [11] stands for this setting: dose 200 mg/kg, oral, values with mark n: p > 0.05, 200 mg/kg.

Consider `O=C(O)c1ccc(Sc2ccc(OCc3ccc4cc(Cl)ccc4n3)cc2)cc1` [Compound 22, 4-(4-(6-Chloroquinoline-2-ylmethoxy)phenylsulfanyl)benzoic Acid], for which the IC50 – broadly, the concentration that inhibits the measured activity by half – was found to be 50 µM at LTB4 receptor, 3.8 µM on LTD4 receptor and 0.07 µg/mL (≈ 0.166 µM) in assay [4]. Further, at LTB4 receptor, the inhibition at 20 µM came to 22%. For the same compound, at LTD4 receptor, the inhibition at 100 µM was 84%. For the same compound, the inhibition in vivo at 100 mg/kg was found to be 10% in the assay on rats (setting [6]); 25% in the assay with rats (setting [7]); 15% with rats (setting [8]); 3% in [1] (2 min); 15% in assay [1] (4 min); 30% in assay [1] (10 min). Besides, the inhibition in vivo at 100 mg/kg turned out to be 14% in assay [2] (2 min), 33% in assay [2] (4 min), 43% in assay [2] (10 min) and 14% in the assay on Wistar-Han rats. In addition, the “Antiox. effect, % of peroxidation inhibition” value in [3] is 13%. Besides, the “Inh. of LTB4 biosynth., %” value in assay [4] is 97%. For the same compound, the inhibition in vivo at 200 mg/kg in the assay on male mice (setting [9]) came out at 1%; with male mice (setting [10]) it was 9%.
For the compound `O=C(O)c1ccccc1Sc1ccc(OCCCN2CCN(Cc3ccc(Cl)cc3)CC2)cc1` [Compound 13, Dimethanesulfonate of 2-(4-(3-(1-(4-Chlorobenzyl)piperazin-4-yl)-propoxy)phenylsulfanyl)benzoic Acid], the inhibition at 20 µM at LTB4 receptor turned out to be 28%. Besides, the figures for the IC50 (on LTD4 receptor; in [4]) were 41 µM and 7.6 µg/mL, respectively. Besides, the inhibition at 100 µM at LTD4 receptor worked out at 79%. Besides, the “Inhibition of bronchospasm induced by histamine liberator 48/80” value in assay [5] (2 min) came out at 84%; in [5] (4 min), 82%; in assay [5] (10 min) it was 69%. In addition, the inhibition in vivo at 100 mg/kg in assay [1] (2 min) was 46%; in assay [1] (4 min), 35%; in assay [1] (10 min), 51%; in assay [2] (2 min) it was 6%; in assay [2] (4 min) it was 38%; in assay [2] (10 min) it was 54%. In addition, in assay [4], the “Inh. of LTB4 biosynth., %” value stood at 100%.
In the case of `O=C(O)c1ccccc1Sc1cccc(OCc2ccc3ccccc3n2)c1` [Compound 17, 2-(3-(Quinoline-2-ylmethoxy)phenylsulfanyl)benzoic Acid], the IC50 on LTB4 receptor worked out at 44.2 µM; on LTD4 receptor, 0.63 µM; in assay [4], 0.08 µg/mL (≈ 0.206 µM). The inhibition at 20 µM at LTB4 receptor is 38%. Moreover, at LTD4 receptor, the inhibition at 100 µM came out at 100%. Further, the inhibition in vivo at 100 mg/kg turned out to be 5% in the assay with rats (setting [6]); 20% in the assay on rats (setting [7]); 15% in the assay on rats (setting [8]); 23% in assay [1] (2 min); 36% in assay [1] (4 min); 50% in [1] (10 min). Moreover, the inhibition in vivo at 100 mg/kg is 11% in assay [2] (2 min), 28% in [2] (4 min), 23% in [2] (10 min) and 19% in the assay on Wistar-Han rats. In addition, the “Antiox. effect, % of peroxidation inhibition” value in [3] is 4%. For the same compound, in assay [4], the “Inh. of LTB4 biosynth., %” value is 100%. For the same compound, the inhibition in vivo at 200 mg/kg in the assay on male mice (setting [9]) came out at 16%; with male mice (setting [10]), 3%.
Take `O=C(O)c1ccccc1Sc1cccc(OCc2ccc3cc(Cl)ccc3n2)c1` [Compound 20, 2-(3-(6-Chloroquinoline-2-ylmethoxy)phenylsulfanyl)benzoic Acid]: the IC50 at LTB4 receptor stood at 31.3 µM; at LTD4 receptor it was 0.27 µM. In addition, at LTB4 receptor, the inhibition at 20 µM came to 31%. For the same compound, the inhibition at 100 µM on LTD4 receptor was found to be 100%. The inhibition in vivo at 100 mg/kg was found to be 15% in the assay on rats (setting [6]); 19% in the assay on rats (setting [7]); 66% in assay [1] (2 min); 72% in assay [1] (4 min); 85% in [1] (10 min); 6% in [2] (2 min). For the same compound, the inhibition in vivo at 100 mg/kg in [2] (4 min) stood at 38%; in assay [2] (10 min), 54%. Further, the “Experimental pleuritis, C: cellularity in a volume unit, % of inh.” value in the assay on rats (100 mg/kg) is on record as 4%. Also, in the assay with Wistar-Han rats, the “CE: inhibition of carrageenan-induced edema, % of inh.” value is reported as 25%. Also, in assay [3], the “Antiox. effect, % of peroxidation inhibition” value is 1%. Moreover, in assay [4], the “Inh. of LTB4 biosynth., IC50” value turned out to be 0.035 µg/mL. The “Inh. of LTB4 biosynth., %” value in [4] was 99%. Further, the “Ear edema, D: edema of ear lobe, % of inh.” value with male mice (setting [11]) is reported as 12%. Further, the “Ear edema, E: hyperemia of ear lobe, % of inh.” value with male mice (setting [11]) is recorded as 0%.
On to `O=C(O)c1ccccc1Sc1cccc(OCCCN2CCN(Cc3ccc(Cl)cc3)CC2)c1` [Compound 12, Bis-hydrogenmaleate of 2-(3-(3-(1-(4-Chlorobenzyl)piperazin-4-yl)propoxy)-phenylsulfanyl)benzoic Acid], for which the IC50 is 7.1 µM on LTB4 receptor, 16 µM at LTD4 receptor and less than 0.01 µg/mL in [4]. Further, the inhibition at 20 µM on LTB4 receptor amounted to 85%. Also, at LTD4 receptor, the inhibition at 100 µM amounted to 69%. Further, the entries for the “Inhibition of bronchospasm induced by histamine liberator 48/80” value in assay [5] (2 min), in [5] (4 min) and in [5] (10 min) were 77%, 78% and 85%, respectively. Further, the inhibition in vivo at 100 mg/kg was determined as 71% in assay [1] (2 min); 73% in [1] (4 min); 90% in assay [1] (10 min); 9% in [2] (2 min); 41% in assay [2] (4 min); 60% in [2] (10 min). Further, the inhibition in vivo at 100 mg/kg in the assay with Wistar-Han rats is 27%. Moreover, the “Antiox. effect, % of peroxidation inhibition” value in [3] is 17%. Also, the “Inh. of LTB4 biosynth., %” value in [4] is reported as 100%. In addition, the inhibition in vivo at 200 mg/kg stood at 18% in the assay with male mice (setting [9]) and 7% in the assay on male mice (setting [10]).
